{"source": "patent US20190083436A1", "about": "“METHODS OF DIAGNOSING CANCER” (AGENCY FOR SCIENCE, TECHNOLOGY AND RESEARCH, priority 2016, published 2019)", "key": {"[1]": {"test_system": "mTOR", "experiment": "Immunofluorescence of mTOR/LAMP2 co-localization in Hep3B cells", "assay_type": "cell-based", "conditions": "treated 2 hours", "description": "Arrows highlight the co-localization of mTOR and lysosomal marker LAMP2. […] Student's t-test, *P<0.05, compared to respective controls."}, "[2]": {"test_system": "DEN-induced liver tumors", "experiment": "DEN-injected mice fed BCAA-supplemented diets with Fenofibrate or BT2", "assay_type": "in vivo", "conditions": "8 months after DEN injection; LFD+BCAA or HFD+BCAA with 0.05% Fenofibrate or 0.02% BT2", "description": "Analysis of mice 8 months after DEN injection, fed either a low fat diet (LFD, 10% kcal from fat) or high fat diet (HFD, 45% kcal from fat) with normal or high (+150%) levels of BCAAs. […] Hazard ratios (with 95% confidence intervals) based on BCAA intake, adjusted for age, sex, race, total kcal, usual dietary intake, diet change, physical activity, intentional weight loss, waist circumference, smoking, education, and prior diagnosis of cancer, diabetes and cardiovascular disease, additionally adjusted for % kcal from other macronutrients. […] Substitution analysis comparing change in risk when replacing BCAAs with carbohydrate or fat, with the same adjustments as HR2 except total kcal and % kcal from nonBCAA protein. Data are presented as hazard ratio (solid line) with 95% confidence interval (shaded area). […] Student's t-test, *P<0.05 vs. LFD, § P<0.05 vs HFD. †P<0.05 vs LFD+BCAA. ‡P<0.05 vs HFD+BCAA. […]\nAll animal studies were approved by the Institutional Animal Care and Use Committee at A*STAR. […] For rat DEN model, DEN was given to 10 week-old rats via drinking water containing 100 mg/L DEN for up to 4 months, and control rat livers from age-matched rats were analyzed. […] Livers were resected, measured by electronic calipers and snap frozen in liquid nitrogen. […] Body weights were measured weekly and prior to sacrifice lean and fat mass were measured by an EchoMRI Body Composition Analyzer. […]"}, "[3]": {"test_system": "mTOR pathway", "experiment": "Immunoblots of mTOR pathway activity after 2 hours of compound treatment", "assay_type": "cell-based", "conditions": "HCC cell lines, 2 hours of treatment", "experimental": "All cell lines were maintained in RPMI 1640 with 10% FBS and 1% Pen Strep (Gibco) and grown in a 37° C. humidified incubator with 5% CO2. […] For immunoblots, cells were seeded in 10 cm dishes and allowed to grow for at least 24 hours. At approximately 80% confluence the media was changed to include indicated amounts of compound or vehicle (DMSO) and whole cell lysates were harvested 2 hours later. […] For immunoblots, cells were seeded in 10 or 15 cm dishes, and were split or received media change every 3-4 days to maintain a doxycycline concentration of 250 μg/mL. After 10 days, cells were harvested as whole cell lysates, or as purified mitochondrial fractions using an isolation kit (Thermo Fisher). Results shown are one of at least three independent experiments. […] For immunoblots, cells were seeded into 10 cm or 15 cm dishes and harvested 5 days later as whole cell lysates or purified mitochondrial fractions, when the cells were approximately 80% confluent.\nAntibodies were obtained from Cell Signaling [Cleaved Caspase 3 (9664), Cox IV (4844), p-Histone H2A.X (9718), S6 (2317), p-S6 (4858), S6K (9202), p-S6K (9234)], Santa Cruz [Bckdha (sc-67200), Bckdhb (sc160974), Gapdh (sc-32233)], Bethyl [p-Bckdha (A304-672A)], Sigma [Tubulin (T5168), Acads (HPA022271)], and Abcam [Acadsb (ab99951), Bckdk (ab125389 and ab151297), Ki67 (ab15580)]. […]"}, "[4]": {"test_system": "HCC cell lines", "experiment": "Real-time cell proliferation (xCELLigence) of liver cancer cell lines treated with compounds", "assay_type": "cell-based", "experimental": "Cell Culture. Cell lines were obtained [Huh7 from Japanese Collection of Research Bioresources; Hep3B, SNU182, SNU387, SNU398, and SNU449 from ATCC; and Morris Hepatoma 3924a from German Cancer Research Center Tumor Collection] and not further verified. Only cell stocks that had been verified mycoplasma-negative within the prior 9 months were used. All cell lines were maintained in RPMI 1640 with 10% FBS and 1% Pen Strep (Gibco) and grown in a 37° C. humidified incubator with 5% CO2. Real-time cell growth measurements were taken on an xCELLigence RTCA SP (Acea) at 15-minute intervals. For compound treatment growth curves, cells were seeded in quadruplicate at 1,250, 2,500 or 5,000 cells per well and normalized 12 hours later (time 0 hours), immediately prior to changing half of the media to add compounds or vehicle. […] For immunoblots, cells were seeded in 10 cm dishes and allowed to grow for at least 24 hours. At approximately 80% confluence the media was changed to include indicated amounts of compound or vehicle (DMSO) and whole cell lysates were harvested 2 hours later. […] Results shown are one of at least three independent experiments."}}, "data": [{"compound": "CC(C)OC(=O)C(C)(C)Oc1ccc(C(=O)c2ccc(Cl)cc2)cc1", "note": "[Fenofibrate, propan-2-yl 2-[4-(4-chlorobenzoyl)phenoxy]-2-methylpropanoate]", "values": [{"measurement": "mTOR subcellular localization (co-localization of mTOR and lysosomal marker LAMP2)", "setting": "[1]", "result": "no significant co-localization was observed"}, {"measurement": "tumor promoting effects of BCAA-supplemented diets (number of tumors ≥3 mm, size of largest tumor)", "setting": "[2]", "result": "able to reverse the tumor promoting effects"}]}, {"compound": "O=C(O)c1sc2cc(Cl)ccc2c1Cl", "note": "[BT2, 3,6-dichlorobenzo[b]thiophene-2-carboxylic acid]", "values": [{"measurement": "mTOR activity (immunoblots)", "setting": "[3]", "result": "broad loss of mTOR activity"}, {"measurement": "mTOR subcellular localization (co-localization of mTOR and lysosomal marker LAMP2)", "setting": "[1]", "result": "no significant co-localization was observed"}, {"measurement": "cell proliferation (real-time proliferation curves, divisions per day)", "setting": "[4]; panel of HCC cell lines, rates over 48-hour period", "result": "potent dose-dependent decrease in cell proliferation"}, {"measurement": "tumor promoting effects of BCAA-supplemented diets (number of tumors ≥3 mm, size of largest tumor)", "setting": "[2]", "result": "able to reverse the tumor promoting effects"}]}, {"compound": "CCC(=O)N1CCN(c2ccc(-n3c(=O)ccc4cnc5ccc(-c6cnc7ccccc7c6)cc5c43)cc2C(F)(F)F)CC1", "note": "[Torin 1]", "values": [{"measurement": "sensitivity of HCC cell lines to mTOR inhibitors", "setting": "[4]; all HCC cell lines examined, proliferation and mTOR pathway immunoblots", "result": "at least partially sensitive"}]}]}
